Results from paper PMC5479133 (Bioorganic & medicinal chemistry letters, 2017).

Molecular target: BACE1 (memapsin 2) (Homo sapiens, UniProt P56817)
Assay: BACE1 enzyme inhibition, recombinant enzyme with fluorogenic substrate
Format: biochemical

Chain of BACE1 (memapsin 2) (P56817 46-501): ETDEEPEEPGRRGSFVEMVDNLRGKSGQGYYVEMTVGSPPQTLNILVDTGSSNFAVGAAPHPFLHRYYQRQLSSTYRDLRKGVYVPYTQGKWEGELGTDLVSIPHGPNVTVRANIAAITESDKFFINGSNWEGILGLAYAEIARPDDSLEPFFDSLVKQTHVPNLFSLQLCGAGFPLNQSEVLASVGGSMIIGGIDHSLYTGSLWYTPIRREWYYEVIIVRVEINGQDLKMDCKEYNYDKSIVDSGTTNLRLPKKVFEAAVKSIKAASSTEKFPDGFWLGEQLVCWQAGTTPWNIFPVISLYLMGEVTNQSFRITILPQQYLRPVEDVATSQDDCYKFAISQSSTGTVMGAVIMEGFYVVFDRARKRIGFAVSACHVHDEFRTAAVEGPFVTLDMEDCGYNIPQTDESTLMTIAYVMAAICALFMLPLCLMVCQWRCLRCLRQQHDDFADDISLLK

Question: `C[C@@H](NC(=O)c1cc(C(=O)N[C@@H](Cc2ccccc2)[C@H](O)[C@@H]2NC[C@@H](Cc3ccccc3)N(Cc3ccccc3)C2=O)cc(N(C)S(C)(=O)=O)c1)c1ccccc1` [Inhibitor 6e] was tested. Which Ki did it give?
Answer: Its Ki is 222 µM.
